These results are taken from US12599584B2, “Indoline derivatives, compositions comprising them and uses thereof” (Yissum Research Development Company of The Hebrew …, priority 2016, dated 2026).

Structures can show the parent of a compound that is named as a salt.

In test [1] the test system is NO release from LPS-activated RAW cells. Kind of test: Release of NO from LPS-activated RAW 264.7 macrophages (Griess). As to conditions: for Greater concentration needed to cause the same effect (NO release): substituent in position 5, compared with AN1284; for Lowest concentration that inhibited NO release by 25%: LPS-activated RAW cells. Format: cell-based, mouse. On the procedure: (§1) Anti-inflammatory activity was measured in RAW 264.7 macrophage cells. The cells were seeded at density of 5×10^4 per well in 48-well culture plates and grown overnight in DMEM as described above. The compounds were added to give final concentrations ranging from 1×10^−12-1×10^−6 M of the respective salts per well. The cells were incubated for 2 h at 37° C. prior to stimulation with lipopolysaccharide (LPS, 2.5 μg/mL) from Escherichia coli (Sigma-Aldrich). Supernatants were harvested after 8 h for detection of TNF-α and after 24 h for nitric oxide (NO). NO production was detected by a colourimetric method using Griess reagent (0.2% naphthylenediamine dihydrochloride, and 2% sulfanilamide in 5% phosphoric acid), which measures the concentration of nitrite, a stable metabolite produced from NO. TNF-α protein was detected by means of the sandwich ELISA method using an ELISA kit (Biolegend, San Diego, CA, USA) according to the manufacturer's instructions.

In test [2] the test system is TNF-α release from LPS-activated RAW cells. In words: Release of TNF-α from LPS-activated RAW 264.7 macrophages (ELISA). Format: cell-based, mouse. To be noted: for Greater concentration needed to cause the same effect (TNF-α release): substituent in position 5, compared with AN1284; for Lowest concentration that inhibited TNF-α release by 25%: LPS-activated RAW cells. On the procedure:
as §1

The test system of test [3] is TNF-α in human macrophages. Kind of test: TNF-α in human macrophages after elevation by LPS (ELISA). In kind it is cell-based. On the procedure: Blood (20 ml was collected from healthy human subjects on the day of the experiment in anti-coagulant tubes and diluted in PBS 1:1. Ficol (12 mL) was added into the bottom of the tube, centrifuged slowly for 30 min at 1400 g and peripheral blood mononuclear cells (PBMCs) were separated. Monocytes were isolated by addition of 15 ml of MACS buffer. After centrifugation at 1400 g for 10 min at 4° C., the supernatant fluid was removed, monocytes were isolated by means of a MACS-Monocyte isolation kit (cat: 130-091-153) and incubated at 4-8° C. for 10 min Monocytes (500,000/well) were seeded in 12 multi well plate and cultured for 7 days in RPMI+L-Glutamin+FBS (10%) and PenStrep and h-MCSF (20 ng/mL) to convert them into macrophages. […] TNF-α, IL-1β and IL-6 protein were detected by means of the sandwich ELISA method using an ELISA kit for human cytokines (Biolegend, San Diego, CA, USA) according to the manufacturer's instructions.

In test [4] the test system is IL-6 in human macrophages. In words: IL-6 in human macrophages after elevation by LPS (ELISA). To be noted: 24 h after LPS; 1 × 10^−9 M. In kind it is cell-based. On the procedure: Blood (20 ml was collected from healthy human subjects on the day of the experiment in anti-coagulant tubes and diluted in PBS 1:1. Ficol (12 mL) was added into the bottom of the tube, centrifuged slowly for 30 min at 1400 g and peripheral blood mononuclear cells (PBMCs) were separated. Monocytes were isolated by addition of 15 ml of MACS buffer. After centrifugation at 1400 g for 10 min at 4° C., the supernatant fluid was removed, monocytes were isolated by means of a MACS-Monocyte isolation kit (cat: 130-091-153) and incubated at 4-8° C. for 10 min Monocytes (500,000/well) were seeded in 12 multi well plate and cultured for 7 days in RPMI+L-Glutamin+FBS (10%) and PenStrep and h-MCSF (20 ng/mL) to convert them into macrophages. Compounds (AN1284, AN1297, AN1298, 1×10^−10 or 1×10^−9 M) were added 2 h before LPS (100 μg/mL Sigma Ltd. phenol extracted from Escherichia coli 055: B5) and incubated at 37° C., 5% CO2. TNF-α, IL-1β and IL-6 protein were detected by means of the sandwich ELISA method using an ELISA kit for human cytokines (Biolegend, San Diego, CA, USA) according to the manufacturer's instructions.

Test [5] relates to LPS-injected mice. Kind of test: Pro-inflammatory cytokine proteins in tissues of mice injected with LPS. Format: in vivo, mouse. To be noted: sc, 2-3 doses, 15 min before LPS 10 mg/kg ip; 4 h after LPS. The method, then: Male Balb/c OlaHsd mice (aged 7-8 weeks) were injected subcutaneously (sc) with saline, or with AN1279, AN1283, AN1284, AN1287 and AN1298 at doses that contain approximately the equivalent amount of the base. LPS (10 mg/kg) was given by intraperitoneal injection 15 min later. The mice were sacrificed 4 h later, which was previously shown to be the optimal time for elevation of cytokines in the spleen and brain. The spleen, brain and liver were rapidly removed and frozen in liquid nitrogen and stored at −80° C. until use. A piece of the cortex was taken for gene analysis of cytokines. Blood was collected into heparinized tubes and plasma separated by centrifugation. For measurement of cytokine protein, tissues were weighed and diluted in PBS containing 0.8% NaCl, 0.144% NaHPO4, 0.024% KH2PO4 and protease inhibitor cocktail (Sigma) and homogenised in an Ultra-TURRAX® homogeniser at a speed of 24,000 rpm and centrifuged at 14000 g for 15 min at 4° C. Cytokines were detected by means of Elisa kits (Biolegend) and protein concentration was determined by a bicinchoninic acid protein assay kit (Thermo Scientific, IL, USA).

For test [6], the system named is RERT/TSC1^f/f mice. Kind of test: Tuberous sclerosis model: tamoxifen-induced TSC1 deletion. In kind it is in vivo, mouse. On the procedure:
RERT/TSC1^f/f mice develop kidney pathology that resembles human tuberous sclerosis (TSC). Mice bearing a floxed allele of TSC1 were purchased from Jackson laboratories and crossed to homozygosity to the RERT strain, provided by Dr. Mariano Barbacid, Spanish National Cancer Research Centre. The RERT strain contains an IRES-Cre-ERT2 knock in into the large subunit of RNA polymerase II, allowing an inducible deletion in all cell types by administration of tamoxifen. […] The mice were injected sc with tamoxifen to induce TSC1 deletion and its effect assessed on body weight and immunological parameters associated with inflammation. AN1284 (1 μmole/kg of the 2HCl salt) was injected sc, twice daily in a group of 5 female mice 5 weeks after tamoxifen challenge. An untreated group of 5 tamoxifen challenged mice served as controls. The mice were weighed once weekly and observed for development of lethargy and eye closure.

Test [7] has as its system C57B1/6 mice with STZ-induced diabetes. In words: Diabetic nephropathy induced by streptozotocin (STZ). Format: in vivo, mouse. The source says: The renal proximal tubule is uniquely susceptible to a variety of metabolic and hemodynamic factors associated with diabetes, predominantly to hyperglycaemia. Glucose entry into renal proximal tubular cells is insulin-independent, making these cells particularly sensitive to the deleterious effects of chronic hyperglycaemia in subjects with diabetes. To induce diabetic nephropathy, male 20, 8-week-old C57B1/6 mice were given five consecutive intraperitoneal injections of streptozotocin (STZ) (50 mg/kg per day). A control group of 10 mice was given 0.1 mol/L citrate buffer (pH 4.5). Ten days following the last injection of STZ, half the mice were treated twice daily with sc injections of AN1284 2HCl (2 μmoles/kg), or vehicle (saline) for fifteen weeks.

The mark [8] stands for this setting: N-isopropylpropylamine versus propylamine side chain.
The mark [9] stands for this setting: 1 μmole/kg 2HCl salt sc twice daily.
Setting [10] is: whole kidney homogenates of diabetic mice.

For `COC(=O)CCN1CCc2cc(Cl)ccc21.Cc1ccc(S(=O)(=O)O)cc1` [AN1285, Methyl 3-(5-Chloroindolin-1-yl)propanoate p-Toluenesulfonate], the “Greater concentration needed to cause the same effect (NO release)” value in test [1] came out at 100 fold. Moreover, the “Greater concentration needed to cause the same effect (TNF-α release)” value in test [2] worked out at 100 fold.

As to `COc1ccc2c(c1)CCN2CCCNC(C)C` [AN1298, N-Isopropyl-3-(5-methoxyindolin-1-yl)propan-1-amine di-Hydrochloride], the “Greater concentration needed to cause the same effect (NO release)” value in test [1] was “does not affect the activity”. Also, in test [2], the “Greater concentration needed to cause the same effect (TNF-α release)” value is on record as “does not affect the activity”. Besides, the “Reduction (%) ± STD compared to LPS alone, TNF-α” value (from here on “Reduction (%) ± STD … TNF-α”) in test [3] (6 h after LPS, 1 × 10^−9 M) is recorded as 50.4 ± 13.5%; in test [3] (12 h after LPS, 1 × 10^−10 M), 28.0 ± 7.9%; in test [3] (12 h after LPS, 1 × 10^−11 M), 14.6 ± 4.2%; in test [3] (24 h after LPS, 1 × 10^−9 M) it was 72.2 ± 9.7%. In test [4], the “Reduction (%) ± STD compared to LPS alone, IL-6” value is listed as 54.6 ± 18.8%. In test [5], the “IL-6 protein in the brain” value was “reduction”. In addition, the “IL-6 protein in the liver” value in test [5] is “reduction”.

Turning to `COC(=O)CCN1CCc2ccccc21.Cl` [AN1283, Methyl 3-(Indolin-1-yl)propanoate Hydrochloride], in test [5], the “IL-6 protein in the brain” value is recorded as “reduction” and the “IL-6 protein in the liver” value is recorded as “reduction”.

Regarding `CC(C)NCCCN1CCc2ccccc21.Cc1ccc(S(=O)(=O)O)cc1` [AN1284, 3-(Indolin-1-yl)-N-isopropylpropan-1-amine di-p-Toluenesulfonate], in test [1] (setting [8]), the “Decrease of the concentration that inhibited significantly the release of NO” value is listed as 10 fold. Further, the “Decrease of the concentration that inhibited significantly the release of TNF-α” value in test [2] (setting [8]) is listed as 10 fold. The “Reduction (%) ± STD … TNF-α” value in test [3] (6 h after LPS, 1 × 10^−9 M) is 55.3 ± 9.8%. The “Reduction (%) ± STD … TNF-α” value in test [3] (12 h after LPS, 1 × 10^−10 M) came to 41.1 ± 5.4%. Further, the “Reduction (%) ± STD … TNF-α” value in test [3] (12 h after LPS, 1 × 10^−11 M) is given as 7.1 ± 5.8 %. Moreover, the “Reduction (%) ± STD … TNF-α” value in test [3] (24 h after LPS, 1 × 10^−9 M) amounted to 71.4 ± 9.7%. The “Reduction (%) ± STD compared to LPS alone, IL-6” value in test [4] stood at 64.7 ± 14.8%. Also, in test [5], the “IL-6 protein in the brain” value is “reduction” and the “IL-6 protein in the liver” value is on record as “reduction”. Moreover, in test [6] (setting [9]), the “MDSCs in the bone marrow and spleen (flow cytometry)” value is recorded as “significant reduction”; the “T cells in the bone marrow and spleen (flow cytometry)” value is given as “significant reduction”. Also, the Body weight decrease entry in test [6] (1 μmole/kg 2HCl salt sc twice daily, versus untreated tamoxifen-challenged mice) is recorded as “much smaller decrease”. For the same compound, in test [6] (1 μmole/kg of the 2HCl salt sc twice daily, from 5 weeks after tamoxifen, five weeks of treatment), the “Development of severe lethargy” value is given as “none of the AN1284-treated mice developed severe lethargy”. Moreover, in test [6] (kidney histology), the Renal cysts result is listed as “clear reduction”. The “Cytokine levels of TNF-α and IL-6 in spleen and liver” value in test [6] (versus untreated group) is reported as “significant reduction”. In addition, the Degree of hyperglycaemia result in test [7] (2 μmoles/kg sc twice daily, fifteen weeks) is reported as “did not affect”. Moreover, in test [7] (0.5 mg/kg, sc), the “Renal mRNA expression level of fibronectin 1” value is on record as “significantly normalised”. Further, the Total fat mass entry in test [7] (AN1284 2HCl 2 μmoles/kg sc twice daily for fifteen weeks, diabetic mice) is recorded as “further reduction”. In test [7] (chronic treatment), the “Blood urea nitrogen levels” value is recorded as “normalizing”, the Glomerular cross-sectional area result is reported as “normalizing” and the Urine albumin-to-creatinine ratio result was “normalizing”. Moreover, in test [7] (versus diabetic-vehicle-treated animals), the “Increased glomerular space area and mesangial expansion” value is reported as “completely normalised”. Also, the Kidney-to-body weight ratio result in test [7] (versus diabetic-vehicle-treated group) was “significantly reduced”. In test [7] (setting [10]), the “mRNA expression level of IP-10” value is listed as “significantly reduced”, the “mRNA expression level of TIMP1” value is “significantly reduced”, the “mRNA expression level of collagen-1” value was “significantly reduced” and the “mRNA expression level of collagen-3” value is given as “significantly reduced”. Besides, the “mRNA expression level of kidney injury marker lipocalin 2” value in test [7] (setting [10]) is reported as “significantly reduced”.

For `Cc1ccc(S(=O)(=O)O)cc1.NCCCC1CNc2ccccc21` (stereo not drawn) [AN1282, 3-(Indolin-3-yl)propan-1-amine di-p-Toluenesulfonate], the “Lowest concentration that inhibited NO release by 25%” value in test [1] stood at 100 pM. Also, the “Lowest concentration that inhibited TNF-α release by 25%” value in test [2] came out at 100 pM.

`COC(=O)CCC1CNc2ccccc21.Cl` (stereo not drawn) [AN647]: the “Lowest concentration that inhibited NO release by 25%” value in test [1] came to 100 pM. Moreover, the “Lowest concentration that inhibited TNF-α release by 25%” value in test [2] was 100 pM.
